# Results: patent US20080045595A1, “METHOD OF TREATING CANCER” (Myriad Genetics, Incorporated, priority 2004, published 2008)
# “Also recorded” adds a separate entry of the source.
# Columns and labels:
# [1] = system: NCI/ADR-RES, a multi drug resistant cell line over-expressing MDR-1; test: Cytotoxicity (ATPLite cell growth inhibition), Example 1, MDR-1 over-expressing cells; format: cell-based; conditions: Homo sapiens, MDR1; NCI/ADR-RES cells (MDR-1 over-expressing), 72 hours exposure, ATPLite assay, mean ± standard deviation; read-out: IC50 (concentration that inhibited growth by 50%)
# Experimental: B. NCl/ADR-RES, a multi drug resistant cell line over-expressing MDR-1 was obtained from NCl, Frederick, Md. This cell line has previously been called MCF-7/ADR by NCl.
# (§1) MCF-7 cells were supplemented additionally with 10 μg/ml recombinant human insulin.
# (§2) All compounds were tested triplicate.
# [2] = system: MCF-7, a human breast cancer cell line; test: Cytotoxicity (ATPLite cell growth inhibition), Example 3, MCF-7 cells; format: cell-based; conditions: MCF7a, 72 hours exposure, ATPLite assay, mean ± standard deviation, read-out: IC50 (concentration that inhibited growth by 50%)
# Experimental: (§3) A. MCF-7, a human breast cancer cell line was obtained from ATCC (Catalog number: HTB-22)
# (§4) All compounds were tested in triplicate.
# [3] = system: MCF-7, a human breast cancer cell line; test: Cytotoxicity (ATPLite cell growth inhibition), Example 1, MCF-7 cells; format: cell-based; conditions: MCF7a, 72 hours exposure, ATPLite assay, mean ± standard deviation, read-out: IC50 (concentration that inhibited growth by 50%)
# Experimental: as §3, §1, §2
# [4] = system: MCF-7/VP, a multi drug resistant cell line over-expressing MRP-1; test: Cytotoxicity (ATPLite cell growth inhibition), Example 2, MRP-1 over-expressing cells; format: cell-based; conditions: Homo sapiens, MCF7-VP; MCF-7/VP cells (MRP-1 over-expressing), 72 hours exposure, ATPLite assay, mean ± standard deviation; read-out: IC50 (concentration that inhibited growth by 50%)
# Excerpt: Over-expression of the product of the ABCC1 gene encoding the multidrug resistance associated protein 1 confers resistance to a wide variety of agents including etoposide, methotrexate, cisplatins and anthracyclines. […] MCF-7/VP cells, a MCF-7 derivative selected for resistance to etoposide, over-express the MRP-1 protein (1).
# B. MCF-7/VP, a multi drug resistant cell line over-expressing MRP-1 was obtained from Dr. Erasmus Schneider, Wadsworth Center, NYS Dept. of Health, Albany, N.Y. 12237.
# as §4
# [5] = system: MCF-7/MX, a multi drug resistant cell line over-expressing BCRP; test: Cytotoxicity (ATPLite cell growth inhibition), Example 3, BCRP over-expressing cells; conditions: for IC50: Homo sapiens, MCF7/MX, 72 h, read-out: IC50 (concentration that inhibited growth by 50%); for Difference in cytotoxic activity between normal (MCF-7) and BCRP over-expressing (MCF-7/MX) cell line: ratio of IC50 MCF-7/MX versus MCF-7
# Experimental: Methods: The tumor cells were plated at 5,000 cells/well in a 96 well tissue culture plate and grown for 24 hours at 37° C. The cells were then exposed to various concentrations of 5-chloro-N-[2-(4-chloro-naphtalen-1-yloxy)-5-trifluoromethyl-phenyl]-2-hydroxy-benzamide, Camptothecin or Epirubicin for 72 hours and the inhibition of cell growth due to exposure to the drug was determined using the ATPLite assay. Data are expressed as the concentration that inhibited growth by 50%.
# Stock solutions of compounds dissolved in DMSO were used to prepare compound dilutions for activity determination. 5-chloro-N-[2-(4-chloro-naphtalen-1-yloxy)-5-trifluoromethyl-phenyl]-2-hydroxy-benzamide was tested at a final concentration of 100 μM, 33.3 μM, 11.1 μM, 3.7 μM, 1.23 μM, 0.4 μM and 0.13 μM for both cell lines. CPT-11 was tested at 1 μM, 0.33 μM, 0.1 μM, 0.04 μM, 0.012 μM, 0.004 μM and 0.001 μM in MCF-7 cells and at 10 μM, 3.3 μM, 1.1 μM, 0.37 μM, 0.12 μM, 0.04 μM and 0.013 μM in MCF-7/MX cells. Epirubicin was tested at 10 μM, 3.3 μM, 1.1 μM, 0.37 μM, 0.12 μM, 0.04 μM and 0.013 μM for MCF-7 cells and at 100 μM, 33.3 μM, 11.1 μM, 3.7 μM, 1.23 μM, 0.4 μM and 0.13 μM for MCF-7/MX cells. The final concentration of DMSO in all cases was adjusted to 0.2% v/v.
# Both cell lines were cultured in RPMI-1640 supplemented with 10% fetal bovine serum, 2 mM Glutamax, 1 mM sodium pyruvate, 0.1 mM non-essential amino acids, 10 μg/ml recombinant human insulin and 10 mM Hepes. All cell lines were grown at 37° C. in a humidified 5% CO2 atmosphere.
# For testing the effect of compounds on cell growth, exponentially growing cells were harvested by trypsinization and plated in fresh growth medium at 50,000 cells/ml, one hundred microlitres cell suspension per well, in a 96-well flat-bottomed microtiter plate (Corning, Costar 3595). Twenty-four hours later, culture medium was replaced with fresh growth medium and varying concentrations of test compound.
# For both cell lines, cells were incubated with compound for three days and cellular viability was determined at the end of the incubation by measuring intracellular ATP with ATPLite assay system. All compounds were tested in triplicate.
# Effect of compounds on cell viability was calculated by comparing the ATP levels of cells exposed to test compound with those of cells exposed to DMSO. A semi-log plot of relative ATP levels versus compound concentration was used to calculate the compound concentration required to inhibit growth by 50% (IC50). Data was analyzed by Prism software (GraphPad; San Diego, Calif.) by fitting it to a sigmoidal dose response curve. The IC50 values obtained for individual data sets were combined to obtain a mean IC50 and standard deviation of the mean.
# [6] = system: MCF-7, a human breast cancer cell line; test: Cytotoxicity (ATPLite cell growth inhibition), Example 2, MCF-7 cells; format: cell-based; conditions: MCF7a, 72 hours exposure, ATPLite assay, mean ± standard deviation, read-out: IC50 (concentration that inhibited growth by 50%)
# Experimental: as §3, §4
# Oral bioavailability = format: in vivo; conditions: oral administration
Bioavailability when administered orally (Oral bioavailability),Structure (SMILES),IC50 [1] [nM],IC50 [2] [nM],IC50 [3] [nM],IC50 [4] [nM],IC50 [5] [nM],Difference in cytotoxic activity between normal (MCF-7) and BCRP over-expressing (MCF-7/MX) cell line [5],IC50 [6] [nM]
low bioavailability,O=C(Nc1cc(C(F)(F)F)ccc1Oc1ccc(Cl)c2ccccc12)c1cc(Cl)ccc1O [5-chloro-N-[2-(4-chloro-naphtalen-1-yloxy)-5-trifluoromethyl-phenyl]-2-hydroxy-benzamide],754,739,739,800,1480,two-fold; also recorded: twofold,592
–,CC[C@@]1(O)C(=O)OCc2c1cc1n(c2=O)Cc2cc3ccccc3nc2-1 [Camptothecin ®],–,21.9,–,–,174,one-eighth,–
–,COc1cccc2c1C(=O)c1c(O)c3c(c(O)c1C2=O)C[C@@](O)(C(=O)CO)C[C@@H]3O[C@H]1C[C@H](N)[C@@H](O)[C@H](C)O1 [Epirubicin],–,150,–,958,1120,one-seventh,150
–,CC(=O)O[C@@]12CO[C@@H]1C[C@H](O)[C@@]1(C)C(=O)[C@H](O)C3=C(C)[C@@H](OC(=O)[C@H](O)[C@@H](NC(=O)OC(C)(C)C)c4ccccc4)C[C@@](O)([C@@H](OC(=O)c4ccccc4)[C@H]21)C3(C)C [Taxotere ®],428,–,0.5,–,–,–,–
–,CC[C@]1(O)C[C@@H]2CN(CCc3c([nH]c4ccccc34)[C@@](C(=O)OC)(c3cc4c(cc3OC)N(C)[C@H]3[C@@](O)(C(=O)OC)[C@H](OC(C)=O)[C@]5(CC)C=CCN6CC[C@]43[C@@H]65)C2)C1 [Vinblastine],558,–,0.6,–,–,–,–
